According to ChEMBL document CHEMBL1201862, “PubChem BioAssay data set” (2004):
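Values below derive from 48-hour exposures of cells grown in 96-well plates, with endpoints linearly interpolated between the two concentrations bracketing the appropriate inhibition level. GI50 marks 50% less growth.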 Active and inactive are the calls of the source. Rule as the data show it: active = GI50 up to about 1.1 µM and inactive = higher.

How the values were obtained:
Test in all cases: inhibition of tumour cell growth, NCI panel, 48 h
A549 = tested on: A549
RPMI-8226 = tested on: RPMI-8226
T47D = tested on: T47D
LOX IMVI = tested on: LOX IMVI
M14 = tested on: M14
A498 = tested on: A498
RXF 393 = tested on: RXF 393
OVCAR-8 = tested on: OVCAR-8
UACC-62 = tested on: UACC-62
BT-549 = tested on: BT-549
COLO 205 = tested on: COLO 205
HCT-15 = tested on: HCT-15
SR = tested on: SR
HOP-62 = tested on: HOP-62
PC-3 = tested on: PC-3
IGROV-1 = tested on: IGROV-1
NCI-H460 = tested on: NCI-H460
K562 = tested on: K562
Hs-578T = tested on: Hs-578T
MCF7 = tested on: MCF7
DU-145 = tested on: DU-145
SF-295 = tested on: SF-295
SNB-75 = tested on: SNB-75
NCI-H23 = tested on: NCI-H23
NCI-H226 = tested on: NCI-H226
SK-MEL-28 = tested on: SK-MEL-28
SNB-19 = tested on: SNB-19
NCI/ADR-RES = tested on: NCI/ADR-RES
HCC 2998 = tested on: HCC 2998
U-251 = tested on: U-251
ACHN = tested on: ACHN
UO-31 = tested on: UO-31
SK-OV-3 = tested on: SK-OV-3
HT-29 = tested on: HT-29
SW-620 = tested on: SW-620
HCT-116 = tested on: HCT-116
MDA-MB-231 = tested on: MDA-MB-231
SK-MEL-2 = tested on: SK-MEL-2
OVCAR-3 = tested on: OVCAR-3
MDA-N = tested on: MDA-N
KM12 = tested on: KM12
OVCAR-5 = tested on: OVCAR-5
CAKI-1 = tested on: CAKI-1
EKVX = tested on: EKVX
OVCAR-4 = tested on: OVCAR-4
SN12C = tested on: SN12C
HL-60 = tested on: HL-60
NCI-H522 = tested on: NCI-H522
UACC-257 = tested on: UACC-257
786-0 = tested on: 786-0
HOP-92 = tested on: HOP-92
TK-10 = tested on: TK-10
SK-MEL-5 = tested on: SK-MEL-5
Malme-3M = tested on: Malme-3M
MDA-MB-435 = tested on: MDA-MB-435
SF-268 = tested on: SF-268
SF-539 = tested on: SF-539
CCRF-CEM = tested on: CCRF-CEM
MOLT-4 = tested on: MOLT-4

O=C(Oc1ccc(S(=O)(=O)F)cc1F)c1ccccc1Cl
GI50 (A549): 35.5 µM (inactive) | GI50 (RPMI-8226): 21.1 µM (inactive) | GI50 (T47D): 31.5 µM (inactive) | GI50 (LOX IMVI): 31.8 µM (inactive) | GI50 (M14): 30.8 µM (inactive) | GI50 (A498): 57.5 µM (inactive) | GI50 (RXF 393): 21.3 µM (inactive) | GI50 (OVCAR-8): 30.8 µM (inactive) | GI50 (UACC-62): 33.6 µM (inactive) | GI50 (BT-549): 39.2 µM (inactive) | GI50 (COLO 205): 19.5 µM (inactive) | GI50 (HCT-15): 37.5 µM | GI50 (SR): 24.5 µM (inactive) | GI50 (HOP-62): 34.8 µM (inactive) | GI50 (PC-3): 37.8 µM (inactive) | GI50 (IGROV-1): 30.8 µM (inactive) | GI50 (NCI-H460): 27.3 µM (inactive) | GI50 (K562): 42.1 µM (inactive) | GI50 (Hs-578T): 25.2 µM (inactive) | GI50 (MCF7): 29.5 µM (inactive) | GI50 (DU-145): 28.1 µM (inactive) | GI50 (SF-295): 32.1 µM (inactive) | GI50 (SNB-75): 24.9 µM (inactive) | GI50 (NCI-H23): 23.9 µM (inactive) | GI50 (NCI-H226): 31 µM (inactive) | GI50 (SK-MEL-28): 74 µM (inactive) | GI50 (SNB-19): 30.5 µM (inactive) | GI50 (NCI/ADR-RES): 35.2 µM (inactive) | GI50 (HCC 2998): 42.6 µM (inactive) | GI50 (U-251): 35.2 µM (inactive) | GI50 (ACHN): 56 µM (inactive) | GI50 (UO-31): 18.5 µM (inactive) | GI50 (SK-OV-3): 98.9 µM (inactive) | GI50 (HT-29): 27 µM (inactive) | GI50 (SW-620): 44.3 µM (inactive) | GI50 (HCT-116): 47.2 µM (inactive) | GI50 (MDA-MB-231): 23.8 µM (inactive) | GI50 (SK-MEL-2): 54.5 µM (inactive) | GI50 (OVCAR-3): 29.9 µM (inactive) | GI50 (MDA-N): 33.3 µM (inactive) | GI50 (KM12): 30.4 µM (inactive) | GI50 (OVCAR-5): 30.9 µM (inactive) | GI50 (CAKI-1): 64.9 µM (inactive) | GI50 (EKVX): 24.4 µM (inactive) | GI50 (OVCAR-4): 30.1 µM (inactive) | GI50 (SN12C): 31.5 µM (inactive) | GI50 (HL-60): 35.6 µM (inactive) | GI50 (NCI-H522): 18.3 µM (inactive) | GI50 (UACC-257): 27.6 µM (inactive) | GI50 (786-0): 33.7 µM (inactive) | GI50 (HOP-92): 20.2 µM (inactive) | GI50 (TK-10): 43.1 µM (inactive) | GI50 (SK-MEL-5): 16.2 µM (inactive) | GI50 (Malme-3M): 31.8 µM (inactive) | GI50 (MDA-MB-435): 29.6 µM (inactive) | GI50 (SF-268): 32.5 µM (inactive) | GI50 (SF-539): 22.5 µM (inactive)

COc1ccc2c(c1)C(N)=C(c1ccccc1)C2=O
GI50 (A549): 64.6 µM (inactive) | GI50 (RPMI-8226): 96.4 µM (inactive) | GI50 (T47D): 32.5 µM (inactive) | GI50 (LOX IMVI): > 100 µM (inactive) | GI50 (M14): > 100 µM (inactive) | GI50 (A498): > 100 µM (inactive) | GI50 (OVCAR-8): 34.4 µM (inactive) | GI50 (UACC-62): > 100 µM (inactive) | GI50 (BT-549): > 100 µM (inactive) | GI50 (COLO 205): > 100 µM (inactive) | GI50 (HCT-15): > 100 µM | GI50 (SR): 8.75 µM (inactive) | GI50 (HOP-62): > 100 µM (inactive) | GI50 (PC-3): > 100 µM (inactive) | GI50 (IGROV-1): 63.5 µM (inactive) | GI50 (NCI-H460): > 100 µM (inactive) | GI50 (CCRF-CEM): > 100 µM (inactive) | GI50 (Hs-578T): 11.4 µM (inactive) | GI50 (MCF7): > 100 µM (inactive) | GI50 (DU-145): > 100 µM (inactive) | GI50 (SF-295): 97.1 µM (inactive) | GI50 (SNB-75): 12.6 µM (inactive) | GI50 (NCI-H23): 38.8 µM (inactive) | GI50 (NCI-H226): 87.9 µM (inactive) | GI50 (SK-MEL-28): > 100 µM (inactive) | GI50 (SNB-19): 24.4 µM (inactive) | GI50 (NCI/ADR-RES): 36.6 µM (inactive) | GI50 (HCC 2998): 81.8 µM (inactive) | GI50 (U-251): 94.4 µM (inactive) | GI50 (ACHN): 33.9 µM (inactive) | GI50 (MOLT-4): 58.5 µM (inactive) | GI50 (SK-OV-3): 49 µM (inactive) | GI50 (HT-29): > 100 µM (inactive) | GI50 (SW-620): > 100 µM (inactive) | GI50 (HCT-116): 58.3 µM (inactive) | GI50 (MDA-MB-231): 51.3 µM (inactive) | GI50 (SK-MEL-2): > 100 µM (inactive) | GI50 (OVCAR-3): > 100 µM (inactive) | GI50 (MDA-N): > 100 µM (inactive) | GI50 (KM12): 36.6 µM (inactive) | GI50 (OVCAR-5): > 100 µM (inactive) | GI50 (CAKI-1): > 100 µM (inactive) | GI50 (EKVX): > 100 µM (inactive) | GI50 (OVCAR-4): > 100 µM (inactive) | GI50 (SN12C): 99.3 µM (inactive) | GI50 (HL-60): > 100 µM (inactive) | GI50 (NCI-H522): > 100 µM (inactive) | GI50 (UACC-257): > 100 µM (inactive) | GI50 (786-0): 80.4 µM (inactive) | GI50 (HOP-92): > 100 µM (inactive) | GI50 (TK-10): > 100 µM (inactive) | GI50 (SK-MEL-5): 49.1 µM (inactive) | GI50 (Malme-3M): > 100 µM (inactive) | GI50 (MDA-MB-435): > 100 µM (inactive) | GI50 (SF-268): 27 µM (inactive) | GI50 (SF-539): > 100 µM (inactive)

CCOC(=O)c1c(Br)c(-c2ccc([N+](=O)[O-])cc2)c(Br)n1C
GI50 (A549): > 10 µM (inactive) | GI50 (RPMI-8226): > 10 µM (inactive) | GI50 (T47D): > 10 µM (inactive) | GI50 (LOX IMVI): > 10 µM (inactive) | GI50 (M14): > 10 µM (inactive) | GI50 (A498): > 10 µM (inactive) | GI50 (OVCAR-8): > 10 µM (inactive) | GI50 (UACC-62): 7.28 µM (inactive) | GI50 (BT-549): > 10 µM (inactive) | GI50 (COLO 205): > 10 µM (inactive) | GI50 (HCT-15): > 10 µM | GI50 (SR): > 10 µM (inactive) | GI50 (HOP-62): > 10 µM (inactive) | GI50 (PC-3): > 10 µM (inactive) | GI50 (IGROV-1): > 10 µM (inactive) | GI50 (NCI-H460): > 10 µM (inactive) | GI50 (K562): > 10 µM (inactive) | GI50 (CCRF-CEM): > 10 µM (inactive) | GI50 (Hs-578T): 5.06 µM (inactive) | GI50 (MCF7): > 10 µM (inactive) | GI50 (DU-145): > 10 µM (inactive) | GI50 (SF-295): > 10 µM (inactive) | GI50 (SNB-75): 2.49 µM (inactive) | GI50 (NCI-H23): > 10 µM (inactive) | GI50 (NCI-H226): > 10 µM (inactive) | GI50 (SK-MEL-28): > 10 µM (inactive) | GI50 (SNB-19): > 10 µM (inactive) | GI50 (NCI/ADR-RES): > 10 µM (inactive) | GI50 (HCC 2998): > 10 µM (inactive) | GI50 (U-251): > 10 µM (inactive) | GI50 (ACHN): > 10 µM (inactive) | GI50 (UO-31): 9.16 µM (inactive) | GI50 (MOLT-4): > 10 µM (inactive) | GI50 (SK-OV-3): > 10 µM (inactive) | GI50 (HT-29): > 10 µM (inactive) | GI50 (HCT-116): > 10 µM (inactive) | GI50 (MDA-MB-231): > 10 µM (inactive) | GI50 (SK-MEL-2): > 10 µM (inactive) | GI50 (OVCAR-3): > 10 µM (inactive) | GI50 (MDA-N): > 10 µM (inactive) | GI50 (KM12): > 10 µM (inactive) | GI50 (OVCAR-5): > 10 µM (inactive) | GI50 (CAKI-1): > 10 µM (inactive) | GI50 (EKVX): 9.55 µM (inactive) | GI50 (OVCAR-4): > 10 µM (inactive) | GI50 (SN12C): 9.06 µM (inactive) | GI50 (HL-60): > 10 µM (inactive) | GI50 (NCI-H522): > 10 µM (inactive) | GI50 (UACC-257): > 10 µM (inactive) | GI50 (786-0): > 10 µM (inactive) | GI50 (HOP-92): 2.47 µM (inactive) | GI50 (TK-10): > 10 µM (inactive) | GI50 (SK-MEL-5): > 10 µM (inactive) | GI50 (Malme-3M): > 10 µM (inactive) | GI50 (MDA-MB-435): > 10 µM (inactive) | GI50 (SF-268): > 10 µM (inactive) | GI50 (SF-539): > 10 µM (inactive)
